From patent publication USRE47493E1, “Substituted bicyclic dihydropyrimidinones and their use as inhibitors of neutrophil elastase activity” (Boehringer Ingelheim International GmbH, priority 2014, dated 2019)

These compounds were tested against Human neutrophil elastase (Homo sapiens (Human), UniProt P08246) (assay: Human Neutrophil Elastase Assay). Conditions: human neutrophil elastase, substrate MeOSuc-Ala-Ala-Pro-Val-AMC, pH 7.5; read-out: IC50.
Type: biochemical
Method: Human Neutrophil Elastase Assay
Materials: Human neutrophil elastase was purchased from Calbiochem (Cat.No.: 324681) and the elastase substrate MeOSuc-Ala-Ala-Pro-Val-AMC from Bachem (Cat.No.: I-1270). All other materials were of the highest grade commercially available.
The following buffers were used: Compound buffer: 100 mM Tris, 500 mM NaCl, adjusted to pH 7.5; Assay buffer: 100 mM Tris, 500 mM NaCl, adjusted to pH 7.5, containing 0.01% BSA.
Assay conditions: Test compounds were prediluted in DMSO and subsequently in compound buffer (5% DMSO final). 5 μL of these compound dilutions were mixed with 10 μl Neutrophil elastase (9 ng/ml in assay buffer) in a black 384 well OptiPlate (Perkin Elmer, Cat No.: 6007270) and incubated for 15 min at room temperature. Subsequently 10 μL substrate solution in assay buffer were added (250 nM final concentration) and the plates were incubated for 60 min at room temperature. After inactivation of the enzyme, fluorescence intensities were measured at 380 nm excitation and 460 nm emission wavelengths.
Each plate contains wells with a high value control (DMSO+enzyme+substrate) and wells with a low value control (DMSO+inactivated enzyme+substrate). IC50 values were estimated using a sigmoidal concentration response curve with variable slope. Means of low values were taken as 0%, means of high values as 100%.

Human neutrophil elastase, sequence (P08246 30-267): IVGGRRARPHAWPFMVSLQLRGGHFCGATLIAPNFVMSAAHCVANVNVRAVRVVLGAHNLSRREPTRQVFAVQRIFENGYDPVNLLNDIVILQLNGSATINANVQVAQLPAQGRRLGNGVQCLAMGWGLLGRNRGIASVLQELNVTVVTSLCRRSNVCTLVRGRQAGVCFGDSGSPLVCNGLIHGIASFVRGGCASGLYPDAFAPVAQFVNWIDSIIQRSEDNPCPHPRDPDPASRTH

Row | SMILES | IC50
1 | N#Cc1ccc(C2NC(=O)N(c3cccc(C(F)(F)F)c3)C3=C2C(=O)CCC3)cc1 (racemic) [Example 1, 4-(2,5-Dioxo-1-(3-(trifluoromethyl)phenyl)-1,2,3,4,5,6,7,8-octahydroquinazolin-4-yl)-benzonitrile] | 28.5 nM
2 | CS(=O)(=O)c1cc(C#N)ccc1C1NC(=O)N(c2cccc(C(F)(F)F)c2)C2=C1C(=O)CCC2 (racemic) [Example 18, 4-(2,5-Dioxo-1-(3-(trifluoromethyl)phenyl)-1,2,3,4,5,6,7,8-octahydroquinazolin-4-yl)-3-(methylsulfonyl)benzonitrile] | 8.5 nM
3 | CS(=O)(=O)c1cc(C#N)ccc1C1NC(=O)N(c2cccc(C(F)F)c2)C2=C1C(=O)CCC2 (racemic) [Example 19, 4-(1-(3-(Difluoromethyl)phenyl)-2,5-dioxo-1,2,3,4,5,6,7,8-octahydroquinazolin-4-yl)-3-(methylsulfonyl)benzonitrile] | 10.7 nM
4 | CN1C(=O)N(c2cccc(C(F)(F)F)c2)C2=C(C(=O)CCC2)C1c1ccc(C#N)cc1 (racemic) [Example 20, 4-(1-(3-(Trifluoromethyl)phenyl)-3-methyl-2,5-dioxo-1,2,3,4,5,6,7,8-octahydroquinazolin-4-yl)benzonitrile] | 7.3 nM
5 | COC(=O)CN1C(=O)N(c2cccc(C(F)(F)F)c2)C2=C(C(=O)CCC2)C1c1ccc(C#N)cc1 (racemic) [Example 31, Methyl 2-(4-(4-Cyanophenyl)-2,5-dioxo-1-(3-(trifluoromethyl)phenyl)-1,2,5,6,7,8-hexahydroquinazolin-3(4H)-yl)acetate] | 18.4 nM
6 | CCS(=O)(=O)c1cc(C#N)ccc1[C@@H]1NC(=O)N(c2cccc(C(F)(F)F)c2)C2=C1C(=O)CCC2 (single isomer, unassigned) [Example 54B] | 1870 nM
7 | N#Cc1ccc([C@H]2NC(=O)N(c3cccc(C(F)(F)F)c3)C3=C2C(=O)CCC3)cc1 [Example 1A, (R)-4-(2,5-Dioxo-1-(3-(trifluoromethyl)phenyl)-1,2,3,4,5,6,7,8-octahydroquinazolin-4-yl)benzonitrile] | 9.5 nM
8 | N#Cc1ccc([C@@H]2NC(=O)N(c3cccc(C(F)(F)F)c3)C3=C2C(=O)CCC3)cc1 [Example 1B, (S)-4-(2,5-Dioxo-1-(3-(trifluoromethyl)phenyl)-1,2,3,4,5,6,7,8-octahydroquinazolin-4-yl)benzonitrile] | 6560 nM
9 | CS(=O)(=O)c1cc(C#N)ccc1[C@@H]1NC(=O)N(c2cccc(C(F)(F)F)c2)C2=C1C(=O)CCC2 [Example 18B, (R)-4-(2,5-Dioxo-1-(3-(trifluoromethyl)phenyl)-1,2,3,4,5,6,7,8-octahydroquinazolin-4-yl)-3-(methylsulfonyl)benzonitrile] | 2510 nM
10 | CS(=O)(=O)c1cc(C#N)ccc1[C@@H]1NC(=O)N(c2cccc(C(F)F)c2)C2=C1C(=O)CCC2 [Example 19B, (R)-4-(1-(3-(Difluoromethyl)phenyl)-2,5-dioxo-1,2,3,4,5,6,7,8-octahydroquinazolin-4-yl)-3-(methylsulfonyl)benzonitrile] | 1660 nM
11 | CN1C(=O)N(c2cccc(C(F)(F)F)c2)C2=C(C(=O)CCC2)[C@H]1c1ccc(C#N)cc1 [Example 20A, (R)-4-(1-(3-(Trifluoromethyl)phenyl)-3-methyl-2,5-dioxo-1,2,3,4,5,6,7,8-octahydroquinazolin-4-yl)benzonitrile] | 2.2 nM
12 | CN1C(=O)N(c2cccc(C(F)(F)F)c2)C2=C(C(=O)CCC2)[C@@H]1c1ccc(C#N)cc1 [Example 20B, (S)-4-(1-(3-(Trifluoromethyl)phenyl)-3-methyl-2,5-dioxo-1,2,3,4,5,6,7,8-octahydroquinazolin-4-yl)benzonitrile] | 1340 nM
13 | COC(=O)CN1C(=O)N(c2cccc(C(F)(F)F)c2)C2=C(C(=O)CCC2)[C@H]1c1ccc(C#N)cc1 [Example 31A, (R)-Methyl 2-(4-(4-Cyanophenyl)-2,5-dioxo-1-(3-(trifluoromethyl)phenyl)-1,2,5,6,7,8-hexahydroquinazolin-3(4H)-yl)acetate] | 7.6 nM
14 | COC(=O)CN1C(=O)N(c2cccc(C(F)(F)F)c2)C2=C(C(=O)CCC2)[C@@H]1c1ccc(C#N)cc1 [Example 31B, (S)-Methyl 2-(4-(4-Cyanophenyl)-2,5-dioxo-1-(3-(trifluoromethyl)phenyl)-1,2,5,6,7,8-hexahydroquinazolin-3(4H)-yl)acetate] | 7020 nM
15 | CN(C)C(=O)CN1C(=O)N(c2cccc(C(F)(F)F)c2)C2=C(C(=O)CCC2)[C@H]1c1ccc(C#N)cc1 [Example 34A, (R)-2-(4-(4-Cyanophenyl)-2,5-dioxo-1-(3-(trifluoromethyl)phenyl)-1,2,5,6,7,8-hexahydroquinazolin-3(4H)-yl)-N,N-dimethylacetamide] | 1.5 nM
16 | CN(C)C(=O)CN1C(=O)N(c2cccc(C(F)(F)F)c2)C2=C(C(=O)CCC2)[C@@H]1c1ccc(C#N)cc1 [Example 34B, (S)-2-(4-(4-Cyanophenyl)-2,5-dioxo-1-(3-(trifluoromethyl)phenyl)-1,2,5,6,7,8-hexahydroquinazolin-3(4H)-yl)-N,N-dimethylacetamide] | 570 nM
17 | Cn1ncc2c1CN(C(=O)CN1C(=O)N(c3cccc(C(F)(F)F)c3)C3=C(C(=O)CCC3)[C@H]1c1ccc(C#N)cc1)C2 [Example 35A, (R)-4-(3-(2-(1-Methylpyrrolo[3,4-c]pyrazol-5(1H,4H,6H)-yl)-2-oxoethyl)-2,5-dioxo-1-(3-(trifluoromethyl)phenyl)-1,2,3,4,5,6,7,8-octahydroquinazolin-4-yl)benzonitrile] | < 1 nM
18 | Cn1ncc2c1CN(C(=O)CN1C(=O)N(c3cccc(C(F)(F)F)c3)C3=C(C(=O)CCC3)[C@@H]1c1ccc(C#N)cc1)C2 [Example 35B, (S)-4-(3-(2-(1-Methylpyrrolo[3,4-c]pyrazol-5(1H,4H,6H)-yl)-2-oxoethyl)-2,5-dioxo-1-(3-(trifluoromethyl)phenyl)-1,2,3,4,5,6,7,8-octahydroquinazolin-4-yl)benzonitrile] | 26.8 nM

Row | SMILES | IC50
19 | N#Cc1ccc(C2C3=C(CCCC3=O)N(c3cccc(C(F)(F)F)c3)C(=O)N2CC(=O)N2CCN3CCCC3C2)cc1 (stereo not shown) [Example 36.56] | 5 nM
20 | CN1C[C@@H](NC(=O)CN2C(=O)N(c3cccc(C(F)(F)F)c3)C3=C(C(=O)CCC3)C2c2ccc(C#N)cc2)CCC1=O (stereo partly shown) [Example 36.61] | 12.7 nM
21 | N#Cc1ccc(C2C3=C(CCCC3=O)N(c3cccc(C(F)(F)F)c3)C(=O)N2CC(=O)NCCN2CCNC2=O)cc1 (stereo not shown) [Example 36.62] | 8.2 nM
22 | CNC(=O)N1C(=O)N(c2cccc(C(F)(F)F)c2)C2=C(C(=O)CCC2)[C@@H]1c1ccc(C#N)cc1S(C)(=O)=O [Example 47B, (R)-4-(4-Cyano-2-(methylsulfonyl)phenyl)-N-methyl-2,5-dioxo-1-(3-(trifluoromethyl)-phenyl)-1,2,5,6,7,8-hexahydroquinazoline-3(4H)-carboxamide] | 94 nM
23 | CS(=O)(=O)c1cc(C#N)ccc1C1C2=C(CCCC2=O)N(c2cccc(C(F)(F)F)c2)C(=O)N1CC(F)F (stereo not shown) [Example 58.3] | 3.1 nM
24 | COCCCN1C(=O)N(c2cccc(C(F)(F)F)c2)C2=C(C(=O)CCC2)C1c1ccc(C#N)cc1S(C)(=O)=O (stereo not shown) [Example 58.4] | 11.3 nM
25 | CS(=O)(=O)c1cc(C#N)ccc1C1C2=C(CCCC2=O)N(c2cccc(C(F)(F)F)c2)C(=O)N1CC(=O)N1CCC1 (stereo not shown) [Example 62.1] | < 1 nM
26 | CS(=O)(=O)c1cc(C#N)ccc1C1C2=C(CCCC2=O)N(c2cccc(C(F)(F)F)c2)C(=O)N1CC(=O)N1CCCC1 (stereo not shown) [Example 62.2] | < 1 nM
27 | CN(CCO)C(=O)CN1C(=O)N(c2cccc(C(F)(F)F)c2)C2=C(C(=O)CCC2)C1c1ccc(C#N)cc1S(C)(=O)=O (stereo not shown) [Example 62.3] | 1.3 nM
28 | CS(=O)(=O)c1cc(C#N)ccc1C1C2=C(CCCC2=O)N(c2cccc(C(F)(F)F)c2)C(=O)N1CC(=O)N1CC2CC2C1 (stereo not shown) [Example 62.4] | < 1 nM
29 | CS(=O)(=O)c1cc(C#N)ccc1C1C2=C(CCCC2=O)N(c2cccc(C(F)(F)F)c2)C(=O)N1CC(=O)N1CCC(F)C1 (stereo not shown) [Example 62.6] | < 1 nM
30 | COCCN(C)C(=O)CN1C(=O)N(c2cccc(C(F)(F)F)c2)C2=C(C(=O)CCC2)C1c1ccc(C#N)cc1S(C)(=O)=O (stereo not shown) [Example 62.7] | < 1 nM
31 | COC1CCN(C(=O)CN2C(=O)N(c3cccc(C(F)(F)F)c3)C3=C(C(=O)CCC3)C2c2ccc(C#N)cc2S(C)(=O)=O)CC1 (stereo not shown) [Example 62.8] | 11.6 nM
32 | CN(Cc1cnn(C)c1)C(=O)CN1C(=O)N(c2cccc(C(F)(F)F)c2)C2=C(C(=O)CCC2)C1c1ccc(C#N)cc1S(C)(=O)=O (stereo not shown) [Example 62.9] | 1.4 nM
33 | N#Cc1ccc(C2C3=C(CCCC3=O)N(c3cccc(C(F)(F)F)c3)C(=O)N2C(=O)N[C@H]2CCC[C@@H]2O)cc1 (stereo partly shown) [Example 70.11] | < 1 nM
34 | N#Cc1ccc(C2C3=C(CCCC3=O)N(c3cccc(C(F)(F)F)c3)C(=O)N2C(=O)N[C@H]2CCCC[C@@H]2O)cc1 (stereo partly shown) [Example 70.17] | 1.1 nM
35 | CC(C)(CO)NC(=O)N1C(=O)N(c2cccc(C(F)(F)F)c2)C2=C(C(=O)CCC2)[C@H]1c1ccc(C#N)cc1S(C)(=O)=O [Example 75.13] | < 1 nM
36 | CC(C)(O)CCNC(=O)N1C(=O)N(c2cccc(C(F)(F)F)c2)C2=C(C(=O)CCC2)[C@H]1c1ccc(C#N)cc1S(C)(=O)=O [Example 75.19] | < 1 nM

Same assay, conditions: read-out: IC50, inhibition of neutrophil elastase

Row | SMILES | IC50
37 | CS(=O)(=O)c1cc(C#N)ccc1[C@@H]1NC(=O)N(c2cccc(C(F)(F)F)c2)C2=C1C(=O)CCC2 [Example 18B, (R)-4-(2,5-Dioxo-1-(3-(trifluoromethyl)phenyl)-1,2,3,4,5,6,7,8-octahydroquinazolin-4-yl)-3-(methylsulfonyl)benzonitrile] | 2510 nM
